# Experimental data from PubChem BioAssay AID1963842 (Molecular Pharmacology Branch, DTP, NCI, 2024).
# Tested on: 677734-321-R-J1-PDC complex spheroid viability
# Assay: Anticancer human tumor 677734-321-R-J1-PDC patient-derived soft tissue sarcoma cell line growth inhibition [POLQ]
# Settings: for IC50: curve of first compound; for viability, T/C: stronger effect = lower value
# Procedure: Multicellular complex tumor spheroid response to Polymerase (POL) inhibitors (novobiocin, ART-558, RP6685) in combination with a variety of drugs and investigational agents in selected tumor cell lines
# The POL inhibitors (novobiocin, ART-558, and RP6685) were evaluated both individually and in combination with standard of care and investigational anticancer small molecules within a complex spheroid model of solid tumors. . Complex spheroids include a stromal component modeled by human endothelial cells (HUVEC) and fibroblasts modeled by human mesenchymal stem cells (MSCs). The concentration ranges selected for each drug and investigational agent were based upon clinically achievable concentrations if the clinical Cmax of the agent was known.
# Compounds. The drugs and investigational agents: novobiocin (NSC847541), ART-558 (NSC835418), RP-6685 (NSC848927), peposertib (NSC802822), ceralasertib (NSC780249), elimusertib (NSC800525), camonsertib (NSC841442), AZD-1390 (NSC803789), olaparib (NSC753686), talazoparib (NSC767125), rucaparib (NSC756644), sotorasib (NSC818433), MRTX-1133 (NSC836407), SN-38 (NSC673596), topotecan (NSC609699), epotoside (NSC141540), doxorubicin (NSC123127), gemcitabine (NSC613327), 5-fluorouracil (NSC19893), paclitaxel (NSC125973), vemurafenib (NSC761431), MSA-2 (NSC828583), SN-011 (NSC837082), adavosertib (NSC754352), prexasertib (NSC758257), carboplatin (NSC241240) and oxaliplatin (NSC266046), were obtained from the National Cancer Institute (NCI) Developmental Therapeutics Program Chemical Repository (21). The FDA-approved anticancer drug set is available from the Developmental Therapeutics Program at https://dtp.cancer.gov/organization/dscb/obtaining/. […] The stock solutions were prepared in dimethyl sulfoxide (DMSO, Sigma-Aldrich, St. Louis, MO, cat. D2650), except for the platinum compounds which were prepared in saline (Quality Biological, Gaithersburg, MD, cat. 114-055-101), at 800-fold the tested concentration and stored at -70 degrees C prior to their use. All drugs and investigational agents were tested over a range starting from a high concentration at or near the clinical Cmax and decreasing in half-log increments. If the clinical Cmax for an agent had not been determined, the highest concentration tested was 10 microM, except for SN-38, which was tested at a high concentration of 1 microM.
# Cell Culture. All cells were maintained in an incubator at 37 degrees C and 5% CO2 with 95% humidity. The PDC lines were cultured according to standard operating procedures established by the NCI PDMR (https://pdmr.cancer.gov). Table 3 of the manuscript, lists the cell lines along with the number of the three cell types plated to form the mct-spheroids and media for tumor cell growth. After thawing, all PDC lines, except 997537-175-T-J1-PDC and 415267-285-R-J2-PDC, were cultured in Matrigel-coated flasks prepared with a working solution of 1X Ham's F-12 nutrient mix, without supplementation (Thermo Fisher Scientific, cat. 11765054), 100 U/mL penicillin-streptomycin (Thermo Fisher Scientific, cat. 15140122), and 2.5% Matrigel (Corning Inc., Corning, NY, cat. 354248) for the first three passages. The two PDC lines 997537-175-T-J1-PDC and 415267-285-R-J2-PDC were cultured on uncoated flasks. The 857933-349-R-J2-PDC line was cultured in 6C/Colon 1B media containing advanced DMEM/F-12 (Thermo Fisher Scientific, cat. 12634028), 10 mM HEPES (Thermo Fisher Scientific, cat. 15630080), 1X GlutaMAX supplement (Thermo Fisher Scientific, cat. 35050061), 0.1 mg/mL primocin (InvivoGen, San Diego, CA, cat. ant-pm-2), 10% defined fetal bovine serum, heat inactivated (HyClone Laboratories Inc., Logan, UT, cat. SH30070.03HI), 50% L-WRN conditioned media (ATCC, cat. CRL-3276), 1.25 mM N-Acetyl-L-cysteine (Sigma-Aldrich, cat. A9165), 10 mM nicotinamide (Sigma-Aldrich, cat. N0636), 1X B-27 supplement (Thermo Fisher Scientific, cat. 17504044), 1X N-2 supplement (Thermo Fisher Scientific, cat. […]
# 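Also: spheroids exposed to compounds for one week.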
# 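For viability, T/C in this document: 100% = vehicle DMSO treated spheroids.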
compound,measurement,setting,value
C=CC(=O)N1CCN(c2nc(=O)n(-c3c(C)ccnc3C(C)C)c3nc(-c4c(O)cccc4F)c(F)cc23)C(C)C1 (configuration not stated) + Nc1ccc(C#CCN(C(=O)Cc2ncc(C(F)(F)F)cc2C(F)(F)F)c2ccc(F)cc2)nn1,IC50,second compound 0.0316 µM,> 10 µM
same,IC50,second compound 0.1 µM,> 10 µM
same,IC50,second compound 0.316 µM,> 10 µM
same,IC50,second compound 1 µM,> 10 µM
same,IC50,second compound 3.16 µM,> 10 µM
same,IC50,second compound 10 µM,9.87 µM
same,"viability, T/C","second compound 0.0316 µM, first compound 0.0316 µM",114%
same,"viability, T/C","second compound 0.0316 µM, first compound 0.1 µM",116%
same,"viability, T/C","second compound 0.0316 µM, first compound 0.316 µM",101%
same,"viability, T/C","second compound 0.0316 µM, first compound 1 µM",101%
same,"viability, T/C","second compound 0.0316 µM, first compound 3.16 µM",89.2%
same,"viability, T/C","second compound 0.0316 µM, first compound 10 µM",74.4%
same,"viability, T/C","second compound 0.1 µM, first compound 0.0316 µM",107%
same,"viability, T/C","second compound 0.1 µM, first compound 0.1 µM",104%
same,"viability, T/C","second compound 0.1 µM, first compound 0.316 µM",93.7%
same,"viability, T/C","second compound 0.1 µM, first compound 1 µM",118%
same,"viability, T/C","second compound 0.1 µM, first compound 3.16 µM",82.7%
same,"viability, T/C","second compound 0.1 µM, first compound 10 µM",63.5%
same,"viability, T/C","second compound 0.316 µM, first compound 0.0316 µM",94.4%
same,"viability, T/C","second compound 0.316 µM, first compound 0.1 µM",94.9%
same,"viability, T/C","second compound 0.316 µM, first compound 0.316 µM",101%
same,"viability, T/C","second compound 0.316 µM, first compound 1 µM",109%
same,"viability, T/C","second compound 0.316 µM, first compound 3.16 µM",86.9%
same,"viability, T/C","second compound 0.316 µM, first compound 10 µM",69.4%
same,"viability, T/C","second compound 1 µM, first compound 0.0316 µM",112%
same,"viability, T/C","second compound 1 µM, first compound 0.1 µM",96.6%
same,"viability, T/C","second compound 1 µM, first compound 0.316 µM",92.4%
same,"viability, T/C","second compound 1 µM, first compound 1 µM",103%
same,"viability, T/C","second compound 1 µM, first compound 3.16 µM",104%
same,"viability, T/C","second compound 1 µM, first compound 10 µM",52.4%
same,"viability, T/C","second compound 3.16 µM, first compound 0.0316 µM",107%
same,"viability, T/C","second compound 3.16 µM, first compound 0.1 µM",106%
same,"viability, T/C","second compound 3.16 µM, first compound 0.316 µM",111%
same,"viability, T/C","second compound 3.16 µM, first compound 1 µM",102%
same,"viability, T/C","second compound 3.16 µM, first compound 3.16 µM",103%
same,"viability, T/C","second compound 3.16 µM, first compound 10 µM",56.6%
same,"viability, T/C","second compound 10 µM, first compound 0.0316 µM",136%
same,"viability, T/C","second compound 10 µM, first compound 0.1 µM",99.3%
same,"viability, T/C","second compound 10 µM, first compound 0.316 µM",107%
same,"viability, T/C","second compound 10 µM, first compound 1 µM",111%
same,"viability, T/C","second compound 10 µM, first compound 3.16 µM",85.4%
same,"viability, T/C","second compound 10 µM, first compound 10 µM",48.7%
